{
  "source": "patent US20060069132A1",
  "about": "“Azolecarboxamide herbicides” (priority 2004, published 2006)",
  "assay_in_all_cases": "Test C pre-/postemergence herbicide test",
  "key": {"yellow nutsedge": {"tested_on": "yellow nutsedge", "assay_type": "in vivo, Cyperus esculentus", "summary_of_the_method": "(§1)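 Emerged plants at the 1- to 4-leaf stage (2–18 cm), or freshly planted seeds, received test chemicals in a non-phytotoxic solvent mixture with surfactant. Response was visually scored against controls after 12 to 14 days in the greenhouse, on a 0 (no effect) to 100 (complete control) scale.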"}, "johnsongrass": {"tested_on": "johnsongrass", "assay_type": "in vivo, Sorghum halepense", "summary_of_the_method": "as §1"}, "soybean": {"tested_on": "soybean", "assay_type": "in vivo, Glycine max", "summary_of_the_method": "as §1"}, "Surinam grass": {"tested_on": "Surinam grass", "assay_type": "in vivo, Urochloa decumbens", "summary_of_the_method": "as §1"}, "lambsquarters": {"tested_on": "lambsquarters", "assay_type": "in vivo, Chenopodium album", "summary_of_the_method": "as §1"}, "corn": {"tested_on": "corn", "assay_type": "in vivo, Zea mays", "summary_of_the_method": "as §1"}, "giant foxtail": {"tested_on": "giant foxtail", "assay_type": "in vivo, Setaria faberi", "summary_of_the_method": "as §1"}, "morningglory": {"tested_on": "morningglory", "assay_type": "in vivo, Ipomoea coccinea", "summary_of_the_method": "as §1"}, "common ragweed": {"tested_on": "common ragweed", "assay_type": "in vivo, Ambrosia elatior", "summary_of_the_method": "as §1"}, "[1]": {"details": "Postemergence, 500 g ai/ha, scale 0 to 100"}},
  "data": [
    {"smiles": "CCn1nc(C(C)(C)C)cc1C(=O)Nc1cccc(C(=O)OCCF)c1", "note": "[Compound 82, 2-fluoroethyl 3-[[[3-(1,1-dimethylethyl)-1-ethyl-1H-pyrazol-5-yl]-carbonyl]amino]benzoate]", "values": [
      {"measurement": "pest or weed control at 250 g/ha", "setting": "yellow nutsedge; Cyperus, post-emergence, Postemergence, 250 g ai/ha, scale 0 to 100, 0 no effect, 100 complete control, read-out: Plant response rating, Nutsedge, Yellow", "result": 5, "unit": "%"},
      {"measurement": "pest or weed control at 125 g/ha", "setting": "yellow nutsedge; Cyperus, post-emergence, postemergence, 125 g ai/ha, scale 0 to 100, read-out: Plant response rating, Nutsedge, Yellow", "result": 5, "unit": "%"},
      {"measurement": "pest or weed control at 62 g/ha", "setting": "yellow nutsedge; Cyperus, post-emergence, postemergence, 62 g ai/ha, scale 0 to 100, read-out: Plant response rating, Nutsedge, Yellow", "result": 0, "unit": "%"},
      {"measurement": "Nutsedge, Yellow plant response rating", "setting": "yellow nutsedge; [1]", "result": 5},
      {"measurement": "Johnsongrass plant response rating", "setting": "johnsongrass; [1]", "result": 10},
      {"measurement": "pest or weed control at 250 g/ha", "setting": "johnsongrass; Sorghum halepense, post-emergence, Postemergence, 250 g ai/ha, scale 0 to 100, 0 no effect, 100 complete control, read-out: Plant response rating, Johnsongrass", "result": 5, "unit": "%"},
      {"measurement": "pest or weed control at 125 g/ha", "setting": "johnsongrass; Sorghum halepense, post-emergence, postemergence, 125 g ai/ha, scale 0 to 100, read-out: Plant response rating, Johnsongrass", "result": 0, "unit": "%"},
      {"measurement": "pest or weed control at 62 g/ha", "setting": "johnsongrass; Sorghum halepense, post-emergence, postemergence, 62 g ai/ha, scale 0 to 100, read-out: Plant response rating, Johnsongrass", "result": 0, "unit": "%"},
      {"measurement": "plant injury at 250 g/ha", "setting": "soybean; Glycine max, post-emergence, Postemergence, 250 g ai/ha, scale 0 to 100, 0 no effect, 100 complete control, read-out: Plant response rating, Soybean", "result": 40, "unit": "%"},
      {"measurement": "plant injury at 125 g/ha", "setting": "soybean; Glycine max, post-emergence, postemergence, 125 g ai/ha, scale 0 to 100, read-out: Plant response rating, Soybean", "result": 30, "unit": "%"},
      {"measurement": "plant injury at 62 g/ha", "setting": "soybean; Glycine max, post-emergence, postemergence, 62 g ai/ha, scale 0 to 100, read-out: Plant response rating, Soybean", "result": 20, "unit": "%"},
      {"measurement": "Soybean plant response rating", "setting": "soybean; [1]", "result": 40},
      {"measurement": "Surinam Grass plant response rating", "setting": "Surinam grass; [1]", "result": 40},
      {"measurement": "pest or weed control at 250 g/ha", "setting": "Surinam grass; Urochloa decumbens, post-emergence, 312 h, Postemergence, 250 g ai/ha, scale 0 to 100, 0 no effect, 100 complete control, read-out: Plant response rating, Surinam Grass", "result": 20, "unit": "%"},
      {"measurement": "pest or weed control at 125 g/ha", "setting": "Surinam grass; Urochloa decumbens, post-emergence, 312 h, postemergence, 125 g ai/ha, scale 0 to 100, read-out: Plant response rating, Surinam Grass", "result": 10, "unit": "%"},
      {"measurement": "pest or weed control at 62 g/ha", "setting": "Surinam grass; Urochloa decumbens, post-emergence, 312 h, postemergence, 62 g ai/ha, scale 0 to 100, read-out: Plant response rating, Surinam Grass", "result": 10, "unit": "%"},
      {"measurement": "pest or weed control at 250 g/ha", "setting": "lambsquarters; Chenopodium album, post-emergence, Postemergence, 250 g ai/ha, scale 0 to 100, 0 no effect, 100 complete control, read-out: Plant response rating, Lambsquarters", "result": 80, "unit": "%"},
      {"measurement": "pest or weed control at 125 g/ha", "setting": "lambsquarters; Chenopodium album, post-emergence, postemergence, 125 g ai/ha, scale 0 to 100, read-out: Plant response rating, Lambsquarters", "result": 50, "unit": "%"},
      {"measurement": "pest or weed control at 62 g/ha", "setting": "lambsquarters; Chenopodium album, post-emergence, postemergence, 62 g ai/ha, scale 0 to 100, read-out: Plant response rating, Lambsquarters", "result": 30, "unit": "%"},
      {"measurement": "Lambsquarters plant response rating", "setting": "lambsquarters; [1]", "result": 100},
      {"measurement": "Corn plant response rating", "setting": "corn; [1]", "result": 45},
      {"measurement": "Corn plant response rating (crop injury, 0 = no effect, 100 = complete kill) at 250 g/ha", "setting": "corn; Zea mays, post-emergence, 312 h, Postemergence, 250 g ai/ha, scale 0 to 100, 0 no effect, 100 complete control", "result": 10, "unit": "%"},
      {"measurement": "Corn plant response rating (crop injury, 0 = no effect, 100 = complete kill) at 125 g/ha", "setting": "corn; Zea mays, post-emergence, 312 h, postemergence, 125 g ai/ha, scale 0 to 100", "result": 10, "unit": "%"},
      {"measurement": "Corn plant response rating (crop injury, 0 = no effect, 100 = complete kill) at 62 g/ha", "setting": "corn; Zea mays, post-emergence, 312 h, postemergence, 62 g ai/ha, scale 0 to 100", "result": 10, "unit": "%"},
      {"measurement": "Foxtail, Giant plant response rating", "setting": "giant foxtail; [1]", "result": 30},
      {"measurement": "pest or weed control at 250 g/ha", "setting": "giant foxtail; Setaria faberi, post-emergence, 312 h, Postemergence, 250 g ai/ha, scale 0 to 100, 0 no effect, 100 complete control, read-out: Plant response rating, Foxtail, Giant", "result": 10, "unit": "%"},
      {"measurement": "pest or weed control at 125 g/ha", "setting": "giant foxtail; Setaria faberi, post-emergence, 312 h, postemergence, 125 g ai/ha, scale 0 to 100, read-out: Plant response rating, Foxtail, Giant", "result": 0, "unit": "%"},
      {"measurement": "pest or weed control at 62 g/ha", "setting": "giant foxtail; Setaria faberi, post-emergence, 312 h, postemergence, 62 g ai/ha, scale 0 to 100, read-out: Plant response rating, Foxtail, Giant", "result": 0, "unit": "%"},
      {"measurement": "pest or weed control at 250 g/ha", "setting": "morningglory; Ipomoea, post-emergence, Postemergence, 250 g ai/ha, scale 0 to 100, 0 no effect, 100 complete control, read-out: Plant response rating, Morningglory", "result": 50, "unit": "%"},
      {"measurement": "pest or weed control at 125 g/ha", "setting": "morningglory; Ipomoea, post-emergence, postemergence, 125 g ai/ha, scale 0 to 100, read-out: Plant response rating, Morningglory", "result": 10, "unit": "%"},
      {"measurement": "pest or weed control at 62 g/ha", "setting": "morningglory; Ipomoea, post-emergence, postemergence, 62 g ai/ha, scale 0 to 100, read-out: Plant response rating, Morningglory", "result": 10, "unit": "%"},
      {"measurement": "Morningglory plant response rating", "setting": "morningglory; [1]", "result": 50},
      {"measurement": "pest or weed control at 250 g/ha", "setting": "common ragweed; Ambrosia artemisiifolia, post-emergence, Postemergence, 250 g ai/ha, scale 0 to 100, 0 no effect, 100 complete control, read-out: Plant response rating, Ragweed", "result": 10, "unit": "%"},
      {"measurement": "pest or weed control at 125 g/ha", "setting": "common ragweed; Ambrosia artemisiifolia, post-emergence, postemergence, 125 g ai/ha, scale 0 to 100, read-out: Plant response rating, Ragweed", "result": 0, "unit": "%"},
      {"measurement": "pest or weed control at 62 g/ha", "setting": "common ragweed; Ambrosia artemisiifolia, post-emergence, postemergence, 62 g ai/ha, scale 0 to 100, read-out: Plant response rating, Ragweed", "result": 0, "unit": "%"},
      {"measurement": "Ragweed plant response rating", "setting": "common ragweed; [1]", "result": 30}
    ]}
  ]
}
